In this assay the target is T1, Recombinant yeast Hsp90 (Saccharomyces cerevisiae, UniProt P02829).
T1 construct: made in house
Put plainly: Inhibition of Hsp90 ATPase activity, production of inorganic phosphate. In kind it is biochemical. Particulars: incubated with ATP. As to the method:
The present invention also evaluated the biological activity of some of the RAD amides prepared in accordance with the present invention. Recombinant yeast Hsp90 was overexpressed and purified according to the procedure of Buchner. Richter, et al., Coordinated ATP Hydrolysis by the Hsp90 Dimer. […] The yeast was a kind gift from Boris Kornikaeve at the University of Kansas Biomedical Research Service Laboratory.
The pure protein was incubated with ATP and one of three RAD amides (the quinone, the 1,4-hydroxy, or the 1,4-methoxy), and the production of inorganic phosphate was determined.

Usually IC50 stands for the concentration needed to halve the response being measured.

T1 sequence (P02829 whole entry): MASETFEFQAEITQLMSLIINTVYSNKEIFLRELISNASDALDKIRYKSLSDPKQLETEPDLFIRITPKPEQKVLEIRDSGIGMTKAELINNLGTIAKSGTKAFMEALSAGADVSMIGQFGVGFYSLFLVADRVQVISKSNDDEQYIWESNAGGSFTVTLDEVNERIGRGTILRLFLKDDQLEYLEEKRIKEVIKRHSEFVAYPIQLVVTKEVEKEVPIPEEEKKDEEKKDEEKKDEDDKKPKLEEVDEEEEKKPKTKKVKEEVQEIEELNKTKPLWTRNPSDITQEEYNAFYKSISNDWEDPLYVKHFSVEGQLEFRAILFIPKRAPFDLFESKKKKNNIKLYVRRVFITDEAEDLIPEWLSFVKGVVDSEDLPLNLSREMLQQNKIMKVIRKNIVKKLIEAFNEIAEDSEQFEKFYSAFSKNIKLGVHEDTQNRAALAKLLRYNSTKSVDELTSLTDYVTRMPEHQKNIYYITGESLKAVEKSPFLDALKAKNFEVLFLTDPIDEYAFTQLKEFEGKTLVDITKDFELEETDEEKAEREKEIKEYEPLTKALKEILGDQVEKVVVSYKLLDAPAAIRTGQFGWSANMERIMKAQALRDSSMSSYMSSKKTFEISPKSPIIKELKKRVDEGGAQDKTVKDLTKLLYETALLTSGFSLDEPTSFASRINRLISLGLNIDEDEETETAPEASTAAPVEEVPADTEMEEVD

As for `COC(=O)c1c(O)cc(O)c(Cl)c1CCC(=O)NC1=CC(=O)C(OC)=CC1=O` [Quinone], the IC50 reads like this: (IC50 (μm), table) 5.9 µM; (IC50 / inhibitory activity) 1.8 µM.

Values taken from patent publication US8188306B2, “Heat shock protein 90 inhibitors” (University of Kansas, priority 2004, dated 2012).
